Test results from ChEMBL document CHEMBL5291721, “A preclinical secondary pharmacology resource illuminates target-adverse drug reaction associations of marketed drugs” (Nat Commun, 2023).

Columns and labels:
[1] = biological target: Beta-1 adrenergic receptor (Homo sapiens, UniProt P08588); format: functional
[2] = biological target: T1, Gamma-aminobutyric acid receptor subunit alpha-1 (Rattus norvegicus, UniProt P62813); format: functional
[3] = biological target: Bile salt export pump (Homo sapiens, UniProt O95342); format: functional
[4] = biological target: 5-hydroxytryptamine receptor 2B (Homo sapiens, UniProt P41595); format: functional, cell-based
[5] = biological target: D(3) dopamine receptor (Homo sapiens, UniProt P35462)
[6] = biological target: Histamine H3 receptor (Homo sapiens, UniProt Q9Y5N1)
[7] = biological target: Sodium-dependent dopamine transporter (Homo sapiens, UniProt Q01959)
[8] = biological target: Mu-type opioid receptor (Homo sapiens, UniProt P35372)
[9] = biological target: T2, Thromboxane A2 receptor (Homo sapiens, UniProt P21731); format: functional, cell-based
T2 sequence (P21731 whole entry): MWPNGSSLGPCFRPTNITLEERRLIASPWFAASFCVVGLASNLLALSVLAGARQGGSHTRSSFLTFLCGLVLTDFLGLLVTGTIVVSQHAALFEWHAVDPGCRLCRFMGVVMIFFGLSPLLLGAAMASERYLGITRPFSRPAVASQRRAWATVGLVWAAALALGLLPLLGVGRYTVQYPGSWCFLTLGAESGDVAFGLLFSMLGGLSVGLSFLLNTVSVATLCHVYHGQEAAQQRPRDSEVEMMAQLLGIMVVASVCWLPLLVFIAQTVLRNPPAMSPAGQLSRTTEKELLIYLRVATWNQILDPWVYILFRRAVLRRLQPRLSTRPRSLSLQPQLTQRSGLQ

[10] = biological target: T3, Muscarinic acetylcholine receptor M2 (Homo sapiens, UniProt P08172)
T3 sequence (P08172 whole entry): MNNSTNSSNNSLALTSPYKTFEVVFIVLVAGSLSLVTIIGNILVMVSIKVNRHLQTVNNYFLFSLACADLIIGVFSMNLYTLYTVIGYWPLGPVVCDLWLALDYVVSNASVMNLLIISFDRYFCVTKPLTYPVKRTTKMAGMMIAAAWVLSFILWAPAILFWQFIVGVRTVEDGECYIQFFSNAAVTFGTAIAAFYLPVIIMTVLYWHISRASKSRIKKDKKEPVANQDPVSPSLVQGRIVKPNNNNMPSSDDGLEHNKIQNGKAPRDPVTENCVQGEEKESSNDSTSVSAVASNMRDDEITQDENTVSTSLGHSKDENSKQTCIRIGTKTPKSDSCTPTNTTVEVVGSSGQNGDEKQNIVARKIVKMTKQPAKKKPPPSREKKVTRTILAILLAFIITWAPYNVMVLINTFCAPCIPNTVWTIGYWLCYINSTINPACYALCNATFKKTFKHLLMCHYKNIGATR

[11] = biological target: T4, Progesterone receptor (Homo sapiens, UniProt P06401)
T4 sequence (P06401 whole entry): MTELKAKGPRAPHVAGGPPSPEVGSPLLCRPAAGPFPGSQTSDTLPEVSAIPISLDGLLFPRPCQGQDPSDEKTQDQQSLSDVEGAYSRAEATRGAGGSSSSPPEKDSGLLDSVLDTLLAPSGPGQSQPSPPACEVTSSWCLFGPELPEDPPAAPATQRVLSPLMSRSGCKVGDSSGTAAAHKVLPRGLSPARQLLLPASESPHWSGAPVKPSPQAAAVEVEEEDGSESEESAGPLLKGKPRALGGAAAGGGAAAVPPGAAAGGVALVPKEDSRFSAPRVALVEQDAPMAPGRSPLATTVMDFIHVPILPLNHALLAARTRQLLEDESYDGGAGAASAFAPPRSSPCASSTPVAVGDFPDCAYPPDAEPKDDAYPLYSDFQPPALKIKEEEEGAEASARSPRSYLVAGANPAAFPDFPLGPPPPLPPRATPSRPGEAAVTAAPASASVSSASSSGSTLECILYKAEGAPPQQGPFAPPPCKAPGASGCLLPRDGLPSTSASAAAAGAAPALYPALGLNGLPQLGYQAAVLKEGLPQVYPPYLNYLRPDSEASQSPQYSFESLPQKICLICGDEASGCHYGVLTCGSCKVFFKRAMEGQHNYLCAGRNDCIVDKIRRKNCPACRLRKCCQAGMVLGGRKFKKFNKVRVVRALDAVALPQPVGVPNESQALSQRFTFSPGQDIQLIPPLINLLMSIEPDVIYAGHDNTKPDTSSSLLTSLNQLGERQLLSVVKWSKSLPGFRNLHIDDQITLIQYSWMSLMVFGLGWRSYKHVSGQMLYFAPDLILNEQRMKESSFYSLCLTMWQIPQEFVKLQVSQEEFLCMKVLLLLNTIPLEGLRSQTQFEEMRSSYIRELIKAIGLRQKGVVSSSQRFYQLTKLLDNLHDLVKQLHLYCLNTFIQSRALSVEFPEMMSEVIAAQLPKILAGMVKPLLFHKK

[12] = biological target: Sodium-dependent serotonin transporter (Homo sapiens, UniProt P31645)
[13] = biological target: 3',5'-cyclic-AMP phosphodiesterase 4D (Homo sapiens, UniProt Q08499); format: functional
[14] = biological target: T1, Gamma-aminobutyric acid receptor subunit alpha-1
Note: assay procedure not described here.

Sequence of Sodium-dependent dopamine transporter (Q01959 whole entry): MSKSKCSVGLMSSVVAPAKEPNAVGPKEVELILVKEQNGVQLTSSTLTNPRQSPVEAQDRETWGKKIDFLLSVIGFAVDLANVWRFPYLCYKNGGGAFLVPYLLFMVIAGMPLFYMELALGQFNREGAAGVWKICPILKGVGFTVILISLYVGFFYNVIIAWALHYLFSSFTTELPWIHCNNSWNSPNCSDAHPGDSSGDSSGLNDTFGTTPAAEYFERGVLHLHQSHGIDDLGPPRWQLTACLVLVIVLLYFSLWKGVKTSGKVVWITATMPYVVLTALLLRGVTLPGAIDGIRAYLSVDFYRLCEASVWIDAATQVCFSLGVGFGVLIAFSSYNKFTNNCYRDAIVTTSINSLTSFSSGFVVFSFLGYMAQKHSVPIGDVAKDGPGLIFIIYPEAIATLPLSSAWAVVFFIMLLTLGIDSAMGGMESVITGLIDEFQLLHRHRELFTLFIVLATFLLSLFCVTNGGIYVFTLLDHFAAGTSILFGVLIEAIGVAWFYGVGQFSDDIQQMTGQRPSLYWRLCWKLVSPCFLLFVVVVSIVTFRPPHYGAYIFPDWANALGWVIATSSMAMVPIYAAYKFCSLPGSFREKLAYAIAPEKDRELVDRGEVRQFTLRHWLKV
T1 sequence (P62813 whole entry): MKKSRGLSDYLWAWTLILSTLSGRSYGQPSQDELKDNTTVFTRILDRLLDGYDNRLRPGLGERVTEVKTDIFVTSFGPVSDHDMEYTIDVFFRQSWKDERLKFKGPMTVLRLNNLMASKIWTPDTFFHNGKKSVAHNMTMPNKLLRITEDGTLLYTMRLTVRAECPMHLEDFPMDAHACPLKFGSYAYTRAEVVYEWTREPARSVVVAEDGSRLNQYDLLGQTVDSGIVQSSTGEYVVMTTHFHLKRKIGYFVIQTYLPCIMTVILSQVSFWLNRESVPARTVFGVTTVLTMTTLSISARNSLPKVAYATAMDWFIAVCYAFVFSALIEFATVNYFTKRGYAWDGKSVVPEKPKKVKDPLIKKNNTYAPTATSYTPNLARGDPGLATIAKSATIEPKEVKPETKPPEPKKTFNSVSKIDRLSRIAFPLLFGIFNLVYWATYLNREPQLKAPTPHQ
Sequence of Bile salt export pump (O95342 whole entry): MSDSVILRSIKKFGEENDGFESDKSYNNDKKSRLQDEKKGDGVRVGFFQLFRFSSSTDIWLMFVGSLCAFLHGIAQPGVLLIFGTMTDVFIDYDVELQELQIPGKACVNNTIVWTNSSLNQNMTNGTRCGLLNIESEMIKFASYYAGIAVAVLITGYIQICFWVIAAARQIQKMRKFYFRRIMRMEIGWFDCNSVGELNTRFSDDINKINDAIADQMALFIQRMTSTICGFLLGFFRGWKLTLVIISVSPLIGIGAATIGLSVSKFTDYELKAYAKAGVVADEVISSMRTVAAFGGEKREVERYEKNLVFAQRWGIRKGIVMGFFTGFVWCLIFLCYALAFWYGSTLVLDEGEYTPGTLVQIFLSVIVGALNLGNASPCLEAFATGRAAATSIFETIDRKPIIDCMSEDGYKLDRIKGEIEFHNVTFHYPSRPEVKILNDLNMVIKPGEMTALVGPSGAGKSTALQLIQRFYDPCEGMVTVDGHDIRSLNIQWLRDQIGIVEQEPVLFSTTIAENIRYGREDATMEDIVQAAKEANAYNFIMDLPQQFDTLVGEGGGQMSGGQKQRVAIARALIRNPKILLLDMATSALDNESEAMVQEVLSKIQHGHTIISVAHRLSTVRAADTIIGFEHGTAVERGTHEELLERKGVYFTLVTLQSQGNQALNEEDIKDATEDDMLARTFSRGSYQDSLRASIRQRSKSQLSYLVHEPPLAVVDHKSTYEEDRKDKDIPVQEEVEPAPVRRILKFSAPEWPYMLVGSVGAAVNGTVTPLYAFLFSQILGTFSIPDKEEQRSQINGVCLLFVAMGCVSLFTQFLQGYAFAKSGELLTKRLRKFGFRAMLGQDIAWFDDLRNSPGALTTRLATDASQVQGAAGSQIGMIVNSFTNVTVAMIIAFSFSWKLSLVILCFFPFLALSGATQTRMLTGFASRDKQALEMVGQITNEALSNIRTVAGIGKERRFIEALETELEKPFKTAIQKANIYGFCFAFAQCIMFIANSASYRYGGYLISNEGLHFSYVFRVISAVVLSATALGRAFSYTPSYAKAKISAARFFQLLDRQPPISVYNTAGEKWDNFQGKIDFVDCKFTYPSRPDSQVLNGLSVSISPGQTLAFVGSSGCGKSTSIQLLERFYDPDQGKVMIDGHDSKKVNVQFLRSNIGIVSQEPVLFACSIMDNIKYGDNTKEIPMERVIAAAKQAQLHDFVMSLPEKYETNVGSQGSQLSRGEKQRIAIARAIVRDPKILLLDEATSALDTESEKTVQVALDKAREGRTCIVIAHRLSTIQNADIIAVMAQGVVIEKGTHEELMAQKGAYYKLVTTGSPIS
Sequence of Histamine H3 receptor (Q9Y5N1 whole entry): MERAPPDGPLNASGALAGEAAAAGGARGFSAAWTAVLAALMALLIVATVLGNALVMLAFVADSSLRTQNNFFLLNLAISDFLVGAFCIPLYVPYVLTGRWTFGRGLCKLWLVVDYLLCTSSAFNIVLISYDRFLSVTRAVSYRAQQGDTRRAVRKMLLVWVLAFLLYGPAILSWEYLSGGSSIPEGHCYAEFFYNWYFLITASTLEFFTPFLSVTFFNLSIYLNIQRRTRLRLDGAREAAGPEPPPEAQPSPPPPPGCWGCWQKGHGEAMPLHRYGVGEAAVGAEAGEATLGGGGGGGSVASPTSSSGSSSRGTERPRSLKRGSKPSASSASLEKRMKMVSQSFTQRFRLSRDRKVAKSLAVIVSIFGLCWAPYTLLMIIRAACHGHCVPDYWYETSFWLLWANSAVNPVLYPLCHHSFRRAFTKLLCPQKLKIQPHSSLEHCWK
Sequence of 5-hydroxytryptamine receptor 2B (P41595 whole entry): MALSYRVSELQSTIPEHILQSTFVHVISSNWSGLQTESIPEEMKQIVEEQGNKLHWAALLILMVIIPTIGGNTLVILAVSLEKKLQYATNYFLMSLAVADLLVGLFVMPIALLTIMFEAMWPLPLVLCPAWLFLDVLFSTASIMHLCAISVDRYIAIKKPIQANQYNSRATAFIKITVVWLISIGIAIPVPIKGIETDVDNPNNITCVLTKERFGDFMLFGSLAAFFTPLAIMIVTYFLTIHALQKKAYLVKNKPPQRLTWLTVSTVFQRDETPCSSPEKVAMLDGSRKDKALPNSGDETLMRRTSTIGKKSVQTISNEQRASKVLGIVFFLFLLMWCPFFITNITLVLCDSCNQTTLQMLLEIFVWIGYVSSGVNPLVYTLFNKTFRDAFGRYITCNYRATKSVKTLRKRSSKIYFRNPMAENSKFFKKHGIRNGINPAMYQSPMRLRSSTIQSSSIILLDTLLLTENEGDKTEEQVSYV
Sequence of 3',5'-cyclic-AMP phosphodiesterase 4D (Q08499 whole entry): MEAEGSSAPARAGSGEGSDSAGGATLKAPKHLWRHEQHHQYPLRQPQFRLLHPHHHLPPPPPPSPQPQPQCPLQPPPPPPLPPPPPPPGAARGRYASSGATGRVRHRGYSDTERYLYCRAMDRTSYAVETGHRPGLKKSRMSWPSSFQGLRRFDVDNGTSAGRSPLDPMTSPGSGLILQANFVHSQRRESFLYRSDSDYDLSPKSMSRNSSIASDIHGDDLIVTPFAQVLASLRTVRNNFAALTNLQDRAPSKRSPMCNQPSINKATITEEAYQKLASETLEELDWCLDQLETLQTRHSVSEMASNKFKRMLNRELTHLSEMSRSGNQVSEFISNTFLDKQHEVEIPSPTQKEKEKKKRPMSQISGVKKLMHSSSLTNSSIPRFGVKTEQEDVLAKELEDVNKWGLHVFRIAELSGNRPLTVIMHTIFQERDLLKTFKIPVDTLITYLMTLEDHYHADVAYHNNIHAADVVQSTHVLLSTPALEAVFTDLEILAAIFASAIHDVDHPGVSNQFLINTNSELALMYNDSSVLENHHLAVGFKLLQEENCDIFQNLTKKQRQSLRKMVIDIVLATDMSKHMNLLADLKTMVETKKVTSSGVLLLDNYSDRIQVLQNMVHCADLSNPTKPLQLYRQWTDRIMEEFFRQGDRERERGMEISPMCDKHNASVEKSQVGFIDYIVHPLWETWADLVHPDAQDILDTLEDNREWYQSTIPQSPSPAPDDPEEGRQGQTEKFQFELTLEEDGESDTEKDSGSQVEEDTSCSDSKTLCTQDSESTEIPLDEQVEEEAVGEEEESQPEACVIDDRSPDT
Sequence of Mu-type opioid receptor (P35372 whole entry): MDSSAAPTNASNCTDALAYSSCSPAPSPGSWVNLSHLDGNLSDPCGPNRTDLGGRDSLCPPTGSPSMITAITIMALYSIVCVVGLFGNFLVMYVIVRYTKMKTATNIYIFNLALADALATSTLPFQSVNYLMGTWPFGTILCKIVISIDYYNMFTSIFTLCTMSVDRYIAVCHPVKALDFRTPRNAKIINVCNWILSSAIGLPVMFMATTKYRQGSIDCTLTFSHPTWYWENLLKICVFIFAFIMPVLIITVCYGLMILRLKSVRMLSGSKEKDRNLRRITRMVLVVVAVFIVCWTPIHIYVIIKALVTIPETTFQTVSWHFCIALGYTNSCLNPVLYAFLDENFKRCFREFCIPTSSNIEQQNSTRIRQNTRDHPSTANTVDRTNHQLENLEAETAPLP
Sequence of Beta-1 adrenergic receptor (P08588 whole entry): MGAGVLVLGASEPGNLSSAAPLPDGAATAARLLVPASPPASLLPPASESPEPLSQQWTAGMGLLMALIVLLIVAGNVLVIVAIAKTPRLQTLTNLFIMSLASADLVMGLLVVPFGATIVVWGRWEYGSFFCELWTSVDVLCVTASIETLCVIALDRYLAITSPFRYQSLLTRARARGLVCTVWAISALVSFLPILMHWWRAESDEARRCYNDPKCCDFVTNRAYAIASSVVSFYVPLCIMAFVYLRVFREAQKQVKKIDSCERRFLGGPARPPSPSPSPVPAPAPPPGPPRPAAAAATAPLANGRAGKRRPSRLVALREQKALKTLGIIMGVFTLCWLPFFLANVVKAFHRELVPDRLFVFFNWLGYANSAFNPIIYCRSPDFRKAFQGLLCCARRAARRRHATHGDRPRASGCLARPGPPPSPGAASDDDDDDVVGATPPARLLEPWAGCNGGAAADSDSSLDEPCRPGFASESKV

SMILES	AC50 [1] [µM]	AC50 [2] [µM]	AC50 [3] [µM]	AC50 [4] [µM]	AC50 [5] [µM]	AC50 [6] [µM]	AC50 [7] [µM]	AC50 [8] [µM]	AC50 [9] [µM]	AC50 [10] [µM]	AC50 [11] [µM]	AC50 [12] [µM]	AC50 [13] [µM]	AC50 [14] [µM]
CCOc1cc([C@@H](CS(C)(=O)=O)N2C(=O)c3cccc(NC(C)=O)c3C2=O)ccc1OC	> 30	> 30	139	> 30	> 30	–	–	–	–	–	–	–	–	–
CC(C)NC(=N)NC(=N)Nc1ccc(Cl)c(Cl)c1 [CHLORPROGUANIL]	–	> 30	–	> 30	> 30	> 30	1.86	11.2	> 30	29.7	> 30	5.81	> 30	> 30
C[N+](C)(C)CCOP(=O)(O)OP(=O)([O-])OC[C@H]1O[C@@H](n2ccc(N)nc2=O)[C@H](O)[C@@H]1O [CITICOLINE]	–	> 30	–	> 30	> 30	> 30	> 30	> 30	> 30	> 30	> 30	> 30	> 30	> 30
Clc1ccc(Cn2c(CN3CCCC3)nc3ccccc32)cc1 [CLEMIZOLE]	> 30	> 30	29	0.67	> 30	–	–	–	–	–	–	–	28	–
CC(C)Cc1ccc([C@H](C)C(=O)O)cc1 [DEXIBUPROFEN]	> 30	> 30	188	> 30	> 30	–	–	–	–	–	–	–	> 30	–
CC[C@H]1OC(=O)[C@H](C)[C@@H](O[C@H]2C[C@@](C)(OC)[C@@H](O)[C@H](C)O2)[C@H](C)[C@@H](O[C@@H]2O[C@H](C)C[C@H](N(C)C)[C@H]2O)[C@](C)(O)C[C@@H](C)[C@@H]2N[C@@H](COCCOC)O[C@H]([C@H]2C)[C@]1(C)O [DIRITHROMYCIN]	–	–	–	–	–	> 30	> 30	> 30	> 30	> 30	> 30	> 30	–	> 30
CCCCc1oc2ccc(NS(C)(=O)=O)cc2c1C(=O)c1ccc(OCCCN(CCCC)CCCC)cc1 [DRONEDARONE]	–	–	–	–	–	28.4	1.73	3.09	> 30	2.39	0.64	3.31	–	> 30
CNC[C@H](O)c1ccc(O)c(O)c1 [EPINEPHRINE]	–	> 30	> 300	> 30	8.4	–	–	–	–	–	–	–	> 30	–
CC(C)C(=O)Oc1ccc(CO)cc1[C@H](CCN(C(C)C)C(C)C)c1ccccc1 [FESOTERODINE]	–	–	–	–	–	> 30	> 30	> 30	> 30	0.414	> 30	> 30	–	> 30
C#C[C@]1(O)C=C[C@H]2[C@@H]3CCC4=CC(=O)CC[C@@H]4[C@H]3CC[C@@]21CC [GESTODENE]	–	–	–	–	–	> 30	> 30	14.9	> 30	> 30	0.003	4.59	–	2.16
C[N+](C)(CCCCCC[N+](C)(C)C1c2ccccc2-c2ccccc21)C1c2ccccc2-c2ccccc21 [HEXAFLUORENIUM]	–	–	–	–	–	2.72	4.5	1.03	> 30	0.514	> 30	3.02	–	> 30
